Laboratory results reported in patent US9073903B2, “Imidazole-2,4-dione inhibitors of casein kinase 1” (Jasco Pharmaceuticals, LLC, priority 2010, dated 2015).
Read-outs that look alike come from different tables or passages of the source.

Columns and labels:
Assay type in all cases: cell-based
HCT116 cells = assay: Inhibition of HCT116 cells (MTS cell proliferation); conditions: for OD value 1 / OD value 2: 490 nm; for OD value 1 / OD value 2 / inhibition at 0.4 µM / inhibition at 0.8 µM / inhibition at 1.6 µM / inhibition at 3.2 µM / inhibition at 6.25 µM / inhibition at 12.5 µM / inhibition at 25 µM / inhibition at 50 µM / inhibition at 100 µM: 72 h; for inhibition at 0.4 µM / inhibition at 0.8 µM / inhibition at 1.6 µM / inhibition at 3.2 µM / inhibition at 6.25 µM / inhibition at 12.5 µM / inhibition at 25 µM / inhibition at 50 µM / inhibition at 100 µM / IC50: Homo sapiens, HCT-116
Procedure: Inhibition of HCT116 Cells Cells: HCT116 cells, ATCC Passage unknown, Mycoplasma free. Medium: DMEM Medium (GIBCO Cat #11995073) supplemented with 10% fetal bovine serum (Hyclone Cat #SH30396.03). Seeding: 750 cells/well (100 μL) into 96-wells plate, incubated overnight at 37° C. in a humidified, 5% CO2 atmosphere. Treatment: Test compounds and Gemcitabine were prepared in a serial dilution (1:2) by culture medium. Fifty microliters (50 uL) of serially diluted solutions were added into each well. The final concentrations of the positive control and test compounds were shown in the graphs. The cells were incubated for 72 hours after addition of the test compounds. MTS: 15 uL of MTS solution (Promega Cat #G5430) was added into each well and incubated with cells for 4 hours at 37° C. in a humidified, 5% CO2 atmosphere. Measurement: Absorbance at 490 nm was measured using MD Spectramax Plus384 spectrophotometer. The regression curves were calculated by the GraphPad Prism 5 using “log(inhibitor) vs response—variable slope”. Calculation: % of inhibition=(ODzero ctrl−OD compound)/ODzero ctrl*100.

DU145 cells = assay: Inhibition of DU145 cells (MTS cell proliferation); conditions: for inhibition at 0.4 µM / inhibition at 0.8 µM / inhibition at 1.6 µM / inhibition at 3.2 µM / inhibition at 6.25 µM / inhibition at 12.5 µM / inhibition at 25 µM / inhibition at 50 µM / inhibition at 100 µM / IC50: Homo sapiens, DU-145; for inhibition at 0.4 µM: 0.400 uM; for inhibition at 0.8 µM: 0.800 uM; for inhibition at 1.6 µM: 1.600 uM; for inhibition at 3.2 µM: 3.200 uM; for inhibition at 6.25 µM: 6.250 uM; for inhibition at 12.5 µM: 12.500 uM
Procedure: Inhibition of DU145 Cells Cells: DU145 cells, ATCC Passage unknown, Mycoplasma free. Medium: DMEM Medium (GIBCO Cat #11995073) supplemented with 10% fetal bovine serum (Hyclone Cat #SH30396.03). Seeding: 750 cells/well (100 μL) into 96-wells plate, incubated overnight at 37° C. in a humidified, 5% CO2 atmosphere. Treatment: Test compounds and Gemcitabine were prepared in a serial dilution (1:2) by culture medium. Fifty microliters (50 uL) of serially diluted solutions were added into each well. The final concentrations of the positive control and test compounds were shown in the graphs. The cells were incubated for 72 hours after addition of the test compounds. MTS: 15 uL of MTS solution (Promega Cat #G5430) was added into each well and incubated with cells for 4 hours at 37° C. in a humidified, 5% CO2 atmosphere. Measurement: Absorbance at 490 nm was measured using MD Spectramax Plus384 spectrophotometer. The regression curves were calculated by the GraphPad Prism 5 using “log(inhibitor) vs response—variable slope”.

Jurkat = assay: Cell proliferation study Jurkat
[1] = 72 hours, replicate 1, read-out: % of inhibition 1
[2] = 72 hours, replicate 2, read-out: % of inhibition 2

IC50 (HCT116 cells; Table 17, read-out: HCT-116* 50% inhibition concentration): 1290 nM | IC50 (HCT116 cells; Table 26, HCT116, 72 hours, read-out: 50% viability conc.): 1290 nM | IC50 (HCT116 cells; Table 26, HCT116, 72 hours, read-out: IC50): 1420 nM | IC50 (DU145 cells; Table 17, read-out: DU145* 50% inhibition concentration): 1280 nM | IC50 (DU145 cells; Table 26, DU145, 72 hours, read-out: 50% viability conc.): 1280 nM | IC50 (DU145 cells; Table 26, DU145, 72 hours, read-out: IC50): 1170 nM
SMILES: Nc1ccn([C@@H]2O[C@H](CO)[C@@H](O)C2(F)F)c(=O)n1 [Gemcitabine]
OD value 1 (HCT116 cells; 0.400 uM, replicate 1): 0.799 | OD value 2 (HCT116 cells; 0.400 uM, replicate 2): 0.766 | OD value 1 (HCT116 cells; 0.800 uM, replicate 1): 0.619 | OD value 2 (HCT116 cells; 0.800 uM, replicate 2): 0.723 | OD value 1 (HCT116 cells; 1.600 uM, replicate 1): 0.452 | OD value 2 (HCT116 cells; 1.600 uM, replicate 2): 0.535 | OD value 1 (HCT116 cells; 3.200 uM, replicate 1): 0.083 | OD value 2 (HCT116 cells; 3.200 uM, replicate 2): 0.083 | OD value 1 (HCT116 cells; 6.250 uM, replicate 1): 0.076 | OD value 2 (HCT116 cells; 6.250 uM, replicate 2): 0.065 | OD value 1 (HCT116 cells; 12.500 uM, replicate 1): 0.065 | OD value 2 (HCT116 cells; 12.500 uM, replicate 2): 0.063 | OD value 1 (HCT116 cells; 25.000 uM, replicate 1): 0.075 | OD value 2 (HCT116 cells; 25.000 uM, replicate 2): 0.061 | OD value 1 (HCT116 cells; 50.000 uM, replicate 1): 0.036 | OD value 2 (HCT116 cells; 50.000 uM, replicate 2): 0.046 | OD value 1 (HCT116 cells; 100.000 uM, replicate 1): 0.037 | OD value 2 (HCT116 cells; 100.000 uM, replicate 2): 0.037 | inhibition at 0.4 µM (HCT116 cells; 0.400 uM, replicate 1, read-out: % of inhibition 1): 18.8% | inhibition at 0.4 µM (HCT116 cells; 0.400 uM, replicate 2, read-out: % of inhibition 2): 20.9% | inhibition at 0.8 µM (HCT116 cells; 0.800 uM, replicate 1, read-out: % of inhibition 1): 37.2% | inhibition at 0.8 µM (HCT116 cells; 0.800 uM, replicate 2, read-out: % of inhibition 2): 25.3% | inhibition at 1.6 µM (HCT116 cells; 1.600 uM, replicate 1, read-out: % of inhibition 1): 54.1% | inhibition at 1.6 µM (HCT116 cells; 1.600 uM, replicate 2, read-out: % of inhibition 2): 44.7% | inhibition at 3.2 µM (HCT116 cells; 3.200 uM, replicate 1, read-out: % of inhibition 1): 91.6% | inhibition at 3.2 µM (HCT116 cells; 3.200 uM, replicate 2, read-out: % of inhibition 2): 91.4% | inhibition at 6.25 µM (HCT116 cells; 6.250 uM, replicate 1, read-out: % of inhibition 1): 92.3% | inhibition at 6.25 µM (HCT116 cells; 6.250 uM, replicate 2, read-out: % of inhibition 2): 93.3% | inhibition at 12.5 µM (HCT116 cells; 12.500 uM, replicate 1, read-out: % of inhibition 1): 93.4% | inhibition at 12.5 µM (HCT116 cells; 12.500 uM, replicate 2, read-out: % of inhibition 2): 93.5% | inhibition at 25 µM (HCT116 cells; 25.000 uM, replicate 1, read-out: % of inhibition 1): 92.4% | inhibition at 25 µM (HCT116 cells; 25.000 uM, replicate 2, read-out: % of inhibition 2): 93.7% | inhibition at 50 µM (HCT116 cells; 50.000 uM, replicate 1, read-out: % of inhibition 1): 96.4% | inhibition at 50 µM (HCT116 cells; 50.000 uM, replicate 2, read-out: % of inhibition 2): 95.2% | inhibition at 100 µM (HCT116 cells; 100.000 uM, replicate 1, read-out: % of inhibition 1): 96.3% | inhibition at 100 µM (HCT116 cells; 100.000 uM, replicate 2, read-out: % of inhibition 2): 96.2% | Maximal inhibition % (HCT116 cells; Table 26, HCT116, 72 hours): 96.25% | inhibition at 0.4 µM (DU145 cells; [1]): 17.4% | inhibition at 0.4 µM (DU145 cells; [2]): 15.6% | inhibition at 0.8 µM (DU145 cells; [1]): 35.2% | inhibition at 0.8 µM (DU145 cells; [2]): 32.9% | inhibition at 1.6 µM (DU145 cells; [1]): 59% | inhibition at 1.6 µM (DU145 cells; [2]): 54.3% | inhibition at 3.2 µM (DU145 cells; [1]): 95.5% | inhibition at 3.2 µM (DU145 cells; [2]): 96.2% | inhibition at 6.25 µM (DU145 cells; [1]): 96.8% | inhibition at 6.25 µM (DU145 cells; [2]): 96.2% | inhibition at 12.5 µM (DU145 cells; [1]): 96.6% | inhibition at 12.5 µM (DU145 cells; [2]): 97.3% | inhibition at 25 µM (DU145 cells; [1]): 97% | inhibition at 25 µM (DU145 cells; [2]): 96.2% | inhibition at 50 µM (DU145 cells; [1]): 97.4% | inhibition at 50 µM (DU145 cells; [2]): 98.9% | inhibition at 100 µM (DU145 cells; [1]): 97.9% | inhibition at 100 µM (DU145 cells; [2]): 97.2% | Maximal inhibition % (DU145 cells; Table 26, DU145, 72 hours): 97.55% | Jurkat‡ % at 10 μM (Jurkat): 3.2%
